Measured values from patent US8282688B2, “Laccase mediators and methods of use” (Danisco US Inc., priority 2006, dated 2012).
Values joined by “and” are separate entries in the source; they are usually repeats but may differ in a detail not shown here. Equal entries are not always repeated.

Assays:
C. unicolor laccase = experiment: Stability of mediators in the presence of C. unicolor laccase, LC/MS of supernatant (Example 6); assay type: physicochemical; details: for Initial Peak Area / Final Peak Area: LC/MS; for Initial Peak Area: 1 mM standard solution of mediator; for Final Peak Area: supernatant after denim disk bleaching; for Final Peak Area / % Remaining: 2 hours at 50° C.; for % Remaining: supernatant after contact with laccase and denim
Experimental: Aliquots of supernatant were analyzed by LC/MS following the denim disk bleaching protocol described in Example 5 in order to determine the final mediator concentrations in the supernatant following the 2 hour incubation period.
Standard solutions of the mediators were prepared by dilution of the methanolic stock solutions (20 mM) into deionized water, such that the final concentrations were 1 mM respectively for each of the three mediators methyl syringate (MS), 4-cyano-2,6-dimethoxyphenol (SN) and, 4-carboxamido-2,6-dimethoxyphenol (SA). Samples were analyzed using a Thermo Finnegan Quantum TSQ LC/MS system (Thermo Finnegan, San Jose, Calif.) operating in positive electrospray ionization mode. The liquid chromatography conditions were as follows: • Column; Agilent Zorbax SB-Aq, 2.1 mm×100 mm, […] silica • Solvent A; 20 mM Ammonium formate, pH 5.0 • Solvent B; 90% Methanol+10% solvent A • Flow rate; 250 uL/min • Injection volume; 5 uL • Elution program; 70% solvent A from 0 to 1 minute, to 30% A from 3 to 4 minutes, back to 70% A at 4.5 minutes, held at 70% A until 8 minutes overall.
The Mass spectrometry conditions were as follows: • Positive mode electrospray ionization (+ve ESI) in full scan mode, scanning from 175 to 240 Da in 0.5 seconds. • Spray voltage was 4200V, sheath gas flow rate 41 mL/min, aux gas flow rate at 15 mL/min. Tube lens voltage was 109V and capillary temperature was 270° C.

recombinant laccase D = experiment: Denim swatch bleaching, laccase and mediator concentration, Launder-O-meter (Example 10); assay type: biochemical, Cerrena unicolor; set-up: key: TCD = √(ΔL²+Δa²+Δb²) in CIE Lab, before vs after treatment; details: 60° C., pH 6
Experimental: Laccase enzyme, derived from Cerrena unicolor (Example 7, 8570 U/ml, 4 mg protein/ml) was used in the experiments.
The enzyme incubations were done in an ATLAS LP 2 Launder-O-meter at different conditions in relation to pH, temperature, enzyme concentration and mediator concentration.
Reactions were carried out in 500 ml stainless steel reaction vessels containing 100 ml of liquid. To each vessel five (7×7 cm) stonewashed denim swatches (ACG denim style 80270) and 6 steel balls of 6 mm diameter were added. The reactions vessels were closed and entered into the launder-O-meter that was pre-heated to the desired temperature. The incubation was carried out for 30 minutes after which the swatches were washed with ‘running’ tap water, spin dried in an AEG IPX4 centrifuge and dried with an Elna Press Electronic iron at program cotton and evaluated.
The color of the five denim swatches is measured with a Minolta Chromameter CR 310 in the CIE Lab color space with a D 65 light source. Measurements were done before and after laccase treatment and the results of the five swatches were averaged. The total color difference (TCD) is calculated. The total color difference can be calculated with the formula: TCD=√(ΔL)^2+(Δa)^2+(Δb)^2.
The effect of laccase and mediator concentration was evaluated running the experiments in the tables below at pH 6 (50 mM monosodium phosphate buffer pH adjusted with sodium hydroxide 4N solution) and a temperature of 60° C.
The experiments were done with syringamide (SA)- and syringonitrile (SN) mediator.
100 ml buffer was added to a beaker with five swatches, 7×7 cm. The total weight 12 g, (denim:liquor ratio=1:8).
The amounts of syringamide or syringonitrile mediator as indicated in the tables below were added to each beaker as a dilution of a 275 mM SA—or—SN stock solution in 98% methanol. The laccase was added to each beaker as indicated in the tables below, as dilution of a 400 units/ml laccase stock solution. The beakers were closed and processed at 60° C. as described in the example 8. The swatches were evaluated as described in example 8.

[1] = test system: Cerrena unicolor Laccase (recombinant laccase D); experiment: Laccase bleaching of stonewashed denim legs, laccase dose response, Unimac (Example 11); assay type: biochemical; details: pH 6, 60° C., 30 minutes
Experimental: Denim, 12 legs weighing approximately 3 kg, was desized in a Unimac UF 50 washing machine under the following conditions: • Desizing for 15 minutes at 10:1 liquor ratio 50° C. with 0.5 g/l (15 g) of Optisize 160 amylase (Genencor) and 0.5 g/l (15 g) of a non-ionic surfactant (e.g. Rucogen BFA, (Rudolf Chemie) or Ultravon GPN, (Huntsman)) • 2 cold rinses for 5 minutes at 30:1 liquor ratio.
Following desizing the denim was stonewashed in a Unimac UF 50 washing machine under the following conditions: • Cold rinse for 5 minutes at 10:1 liquor ratio • Stonewashing for 60 minutes at 10:1 liquor ratio 55° C. with 1 kg of pumice stone, citrate buffer (30 g tri-sodium citrate dihydrate and 30 g citric acid monohydrate) and 35 g IndiAge 2XL cellulase (Genencor). • 2 cold rinses for 5 minutes at 30:1 liquor ratio.
Denim legs were evaluated with a Minolta Chromameter CR 310 in the CIE Lab color space with a D 65 light source. Measurements were done only after laccase treatment. For each denim leg 8 measurements are taken and the result of the 12 legs (96 measurements) was averaged.
Laccase bleaching of stonewashed denim—Denim, 12 legs weighing approximately 3 kg, was desized and stonewashed as described in Example 8. After stonewashing, a laccase treatment was done according to the following process: 30 minutes at 10:1 liquor ratio and pH 6 (21 g monosodium phosphate and 5 g adipic acid) and 60° C. with laccase and mediator. After laccase treatment the denim use rinsed twice in cold water for 5 minutes at 30:1 liquor ratio.

[2] = laccase 10 μl/l, mediator 0.10 mM
[3] = laccase 10 μl/l, mediator 0.55 mM
[4] = laccase 10 μl/l, mediator 1.00 mM
[5] = laccase 33 μl/l, mediator 0.33 mM
[6] = laccase 33 μl/l, mediator 0.78 mM
[7] = laccase 55 μl/l, mediator 0.10 mM
[8] = laccase 55 μl/l, mediator 0.55 mM
[9] = laccase 55 μl/l, mediator 1.00 mM
[10] = laccase 78 μl/l, mediator 0.33 mM
[11] = laccase 78 μl/l, mediator 0.78 mM
[12] = laccase 100 μl/l, mediator 0.10 mM
[13] = laccase 100 μl/l, mediator 0.55 mM
[14] = laccase 100 μl/l, mediator 1.00 mM

| Structure (SMILES) | Initial Peak Area (C. unicolor laccase) | Final Peak Area (C. unicolor laccase) | % Remaining (C. unicolor laccase) [%] | TCD (total color difference) (recombinant laccase D; [2]) | TCD (total color difference) (recombinant laccase D; [3]) | TCD (total color difference) (recombinant laccase D; [4]) | TCD (total color difference) (recombinant laccase D; [5]) | TCD (total color difference) (recombinant laccase D; [6]) | TCD (total color difference) (recombinant laccase D; [7]) | TCD (total color difference) (recombinant laccase D; [8]) | TCD (total color difference) (recombinant laccase D; [9]) | TCD (total color difference) (recombinant laccase D; [10]) | TCD (total color difference) (recombinant laccase D; [11]) | TCD (total color difference) (recombinant laccase D; [12]) | TCD (total color difference) (recombinant laccase D; [13]) | TCD (total color difference) (recombinant laccase D; [14]) | further results |
| --- | --- | --- | --- | --- | --- | --- | --- | --- | --- | --- | --- | --- | --- | --- | --- | --- | --- |
| COc1cc(C(N)=O)cc(OC)c1O [SA, 4-carboxamido-2,6-dimethoxyphenol] | 122 × 10^7 | 0.94 × 10^7 | 7.8 | 2.5 | 3.6 | 3.2 | 4.6 | 5.5 | 3.1 | 5.3 and 5.8 | 6.2 | 4.4 | 5.9 | 3.2 and 2.9 | 5.3 | 5.6 and 6.0 | Bleaching level (CIE L) ([1]; Syringamide 0.33 mM, Cerrena unicolor laccase 0.010 g/l): 34.6; Bleaching level (CIE L) ([1]; Syringamide 0.33 mM, Cerrena unicolor laccase 0.05 g/l): 36.2; Bleaching level (CIE L) ([1]; Syringamide 0.33 mM, Cerrena unicolor laccase 0.25 g/l): 36.2 |
| COc1cc(C#N)cc(OC)c1O [SN, 4-cyano-2,6-dimethoxyphenol] | 35.6 × 10^7 | 35.2 × 10^7 | 98.9 | 2.7 | 3.4 | 3.8 | 4.4 | 5.5 | 3.5 | 6.0 and 6.3 | 7.0 | 5.6 | 7.1 | 4.0 and 4.1 | 7.1 | 7.6 and 8.1 | Bleaching level (CIE L) ([1]; Syringonitrile 0.39 mM, Cerrena unicolor laccase 0.25 g/l): 37.7; Bleaching level (CIE L) ([1]; Syringonitrile 0.39 mM, Cerrena unicolor laccase 0.4 g/l): 39.5; Bleaching level (CIE L) ([1]; Syringonitrile 0.39 mM, Cerrena unicolor laccase 0.53 g/l): 38.8 |
